Experimental data as given in patent EP0326329B1, “Quinazoline derivatives useful as insecticides” (Dow AgroSciences LLC, priority 1988, dated 1989).

Tests used:
Assay type in all cases: in vivo
[1] = tested on: Cercospora beticola (leaf spot); test: Greenhouse Test 1, foliar spray fungicide screen (LEAF SPOT), host sugar beet; settings: disease control rating, 400 ppm (+++ at 100 ppm)
[2] = tested on: Botrytis cinerea (gray mold); test: Greenhouse Test 1, foliar spray fungicide screen (GRAY MOLD), host grape berries; settings: disease control rating, 400 ppm (+++ at 100 ppm)
[3] = tested on: Erysiphe graminis tritici (powdery mildew); test: Greenhouse Test 1, foliar spray fungicide screen (POWD MDEW), host wheat; settings: disease control rating, 400 ppm (+++ at 100 ppm)
[4] = tested on: melon aphids (Aphis gossypii Glover); test: Mite/insect screen, sprayed squash cotyledons (MA); settings: Aphis gossypii, percent mortality, read-out: MA RESULTS %; for mortality at 200 ppm: spray rate 200 ppm; for mortality at 400 ppm: spray rate 400 ppm
Outline: (§1)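 Water-diluted formulations of each compound (acetone/alcohol 50:50 with 23 g/L and 13 g/L emulsifier blends) are sprayed over both leaf faces to runoff. After a standard exposure period, percent kill and phytotoxicity are recorded.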

[5] = tested on: Southern corn rootworm (Diabrotica undecimpuctata howardi Barber); test: Mite/insect screen, soil treatment (CRW); settings: Diabrotica, percent mortality, soil treatment, read-out: CRW RESULTS %; for mortality at 12 ppm: CRW rate 12.00 ppm; for mortality at 24 ppm: CRW rate 24.00 ppm
Outline: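 Compounds dissolved in acetone/alcohol (50:50) with Toximul R/S emulsifiers, diluted with water. Soil (15 g, with presoaked corn seed) treated with 1 mL test solution, dried 6–12 h, then five 2–3 instar larvae added; held at 23°C. Percent mortality and phytotoxicity scored after standard exposure periods.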

[6] = tested on: Pyricularia oryzae (rice blast); settings: disease control rating, foliar spray, host rice; 400 ppm (+++ at 100 ppm)
[7] = tested on: southern armyworm (Spodopetra eridania Cramer); test: Mite/insect screen, sprayed squash leaves (SAW); settings: Spodoptera eridania, percent mortality, read-out: SAW RESULTS %; for mortality at 200 ppm: spray rate 200 ppm; for mortality at 400 ppm: spray rate 400 ppm
Outline: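 Percent mortality and phytotoxicity are the read-outs, assessed after standard exposure periods. Test solutions, made in 50:50 acetone/alcohol with two sulfonate/nonionic emulsifier blends and diluted in water, are sprayed to runoff on both leaf surfaces, which then dry for one hour.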

[8] = tested on: Puccinia recondita tritici (leaf rust); test: Greenhouse Test 1, foliar spray fungicide screen (LEAF RUST), host wheat; settings: disease control rating, 400 ppm (+++ at 100 ppm)
[9] = tested on: Twospotted spider mites (Tetranychus urticae Koch); test: Mite/insect screen, sprayed squash cotyledons (SM); settings: Tetranychus urticae, percent mortality, read-out: SM RESULTS %; for mortality at 200 ppm: spray rate 200 ppm; for mortality at 400 ppm: spray rate 400 ppm
Outline: as §1

[10] = tested on: Pseudoperonospora cubensis (downy mildew); test: Greenhouse Test 1, foliar spray fungicide screen (DOWN MDEW), host squash; settings: disease control rating, 400 ppm (+++ at 100 ppm)
[11] = tested on: Septoria tritici (leaf blotch); test: Greenhouse Test 1, foliar spray fungicide screen (LEAF BLOT), host wheat; settings: disease control rating, 400 ppm (+++ at 100 ppm)
[12] = tested on: Venturia inaequalis (apple scab); test: Greenhouse Test 1, foliar spray fungicide screen (APPL SCAB), host apple seedling; settings: disease control rating, 400 ppm (+++ at 100 ppm)

| Structure (SMILES) | LEAF SPOT [1] | GRAY MOLD [2] | POWD MDEW [3] | mortality at 200 ppm [4] [%] | mortality at 400 ppm [4] [%] | mortality at 12 ppm [5] [%] | mortality at 24 ppm [5] [%] | RICE BLAST [6] | mortality at 200 ppm [7] [%] | mortality at 400 ppm [7] [%] | LEAF RUST [8] | mortality at 200 ppm [9] [%] | mortality at 400 ppm [9] [%] | DOWN MDEW [10] | LEAF BLOT [11] | APPL SCAB [12] |
| --- | --- | --- | --- | --- | --- | --- | --- | --- | --- | --- | --- | --- | --- | --- | --- | --- |
| c1ccc(-c2ccc(CCNc3ncnc4ccccc34)cc2)cc1 [Example 106, N-[2-(1,1'-biphenyl)-4-ylethyl]-4-quinazolinamine] | + (+ = 20-89% control at 400 ppm) | - (- = 0-19% control at 400 ppm) | +++ (+++ = 90-100% control at 100 ppm) | 0 | 80 | 0 | 0 | +++ (+++ = 90-100% control at 100 ppm) | 90 | 80 | +++ (+++ = 90-100% control at 100 ppm) | 100 | 80 | +++ (+++ = 90-100% control at 100 ppm) | +++ (+++ = 90-100% control at 100 ppm) | +++ (+++ = 90-100% control at 100 ppm) |
| Cc1ccc(CCNc2nc(NCCc3ccc(C)cc3)c3ccccc3n2)cc1 [Example 28, N,N'-bis[2-(4-methylphenyl)ethyl]-2,4-quinazolinediamine] | - (- = 0-19% control at 400 ppm) | - (- = 0-19% control at 400 ppm) | - (- = 0-19% control at 400 ppm) | 0 |  | 0 |  | + (+ = 20-89% control at 400 ppm) | 0 |  | ++ (++ = 90-100% control at 400 ppm) | 0 |  | + (+ = 20-89% control at 400 ppm) | - (- = 0-19% control at 400 ppm) | - (- = 0-19% control at 400 ppm) |
| CC(=O)N(CCc1ccc2ccccc2c1)c1ncnc2ccccc12 [Example 81, N-[2-(2-naphthyl)ethyl]-N-4-quinazolinylacetamide] | - (- = 0-19% control at 400 ppm) | - (- = 0-19% control at 400 ppm) | + (+ = 20-89% control at 400 ppm) | 0 | 0 | 0 | 0 | ++ (++ = 90-100% control at 400 ppm) | 0 | 0 | + (+ = 20-89% control at 400 ppm) | 50 | 0 | + (+ = 20-89% control at 400 ppm) | - (- = 0-19% control at 400 ppm) | + (+ = 20-89% control at 400 ppm) |
| Clc1ccccc1OCCOc1ncnc2ccccc12 [Example 110, 4-[2-(2-chlorophenoxy)ethoxy]quinazoline] | - (- = 0-19% control at 400 ppm) | - (- = 0-19% control at 400 ppm) | - (- = 0-19% control at 400 ppm) | 0 | 0 | 0 | 0 | + (+ = 20-89% control at 400 ppm) | 0 | 0 | ++ (++ = 90-100% control at 400 ppm) | 0 | 0 | + (+ = 20-89% control at 400 ppm) | - (- = 0-19% control at 400 ppm) | - (- = 0-19% control at 400 ppm) |
| COc1ccccc1CCNc1nc(NCCc2ccccc2OC)c2ccccc2n1 [Example 25, N,N'-bis[2-(2-methoxyphenyl)ethyl]-2,4-quinazolinediamine] | - (- = 0-19% control at 400 ppm) |  | - (- = 0-19% control at 400 ppm) | 0 |  | 0 |  | + (+ = 20-89% control at 400 ppm) | 0 |  | + (+ = 20-89% control at 400 ppm) | 0 |  | ++ (++ = 90-100% control at 400 ppm) | - (- = 0-19% control at 400 ppm) | - (- = 0-19% control at 400 ppm) |
| c1ccc(Oc2cccc(CCNc3ncnc4ccccc34)c2)cc1 [Example 38, N-[2-(3-phenoxyphenyl)ethyl]-4-quinazolinamine] | + (+ = 20-89% control at 400 ppm) | - (- = 0-19% control at 400 ppm) | ++ (++ = 90-100% control at 400 ppm) | 0 | 80 | 0 | 100 | +++ (+++ = 90-100% control at 100 ppm) | 40 | 40 | +++ (+++ = 90-100% control at 100 ppm) | 0 | 90 | +++ (+++ = 90-100% control at 100 ppm) | ++ (++ = 90-100% control at 400 ppm) | + (+ = 20-89% control at 400 ppm) |
| Fc1ccc(CCOc2ncnc3ccccc23)cc1 [Example 84, 4-[2-(4-fluorophenyl)ethoxy]quinazoline] | - (- = 0-19% control at 400 ppm) | - (- = 0-19% control at 400 ppm) | ++ (++ = 90-100% control at 400 ppm) | 0 | 0 | 0 | 40 | ++ (++ = 90-100% control at 400 ppm) | 0 | 0 | +++ (+++ = 90-100% control at 100 ppm) | 0 | 0 | ++ (++ = 90-100% control at 400 ppm) | + (+ = 20-89% control at 400 ppm) | ++ (++ = 90-100% control at 400 ppm) |
| Cc1ccc(CCOc2ncnc3ccccc23)cc1 [Example 87, 4-[2-(4-methylphenyl)ethoxy]quinazoline] | + (+ = 20-89% control at 400 ppm) | - (- = 0-19% control at 400 ppm) | ++ (++ = 90-100% control at 400 ppm) | 100 | 100 | 0 | 0 | +++ (+++ = 90-100% control at 100 ppm) | 0 | 50 | ++ (++ = 90-100% control at 400 ppm) | 90 | 90 | +++ (+++ = 90-100% control at 100 ppm) | - (- = 0-19% control at 400 ppm) | - (- = 0-19% control at 400 ppm) |
| Brc1ccc2ncnc(NCCc3ccc(Oc4ccccc4)cc3)c2c1 [Example 177, 6-bromo-N-[2-(4-phenoxyphenyl)ethyl]-4-quinazolinamine] |  | + (+ = 20-89% control at 400 ppm) | - (- = 0-19% control at 400 ppm) | 80 | 50 | 0 | 0 | +++ (+++ = 90-100% control at 100 ppm) | 0 | 0 | +++ (+++ = 90-100% control at 100 ppm) | 0 | 50 | +++ (+++ = 90-100% control at 100 ppm) |  |  |
| c1ccc(Oc2ccc(CCCc3ncnc4ccccc34)cc2)cc1 [Example 164, 4-[3-(4-phenoxyphenyl)propyl]quinazoline] |  | - (- = 0-19% control at 400 ppm) | + (+ = 20-89% control at 400 ppm) | 80 | 80 | 0 | 0 | +++ (+++ = 90-100% control at 100 ppm) | 40 | 40 | +++ (+++ = 90-100% control at 100 ppm) | 80 | 20 | +++ (+++ = 90-100% control at 100 ppm) |  |  |
| Oc1ccc(CCCOc2ncnc3ccccc23)cc1 [Example 121, 4-[3-(4-hydroxyphenyl)propoxy]quinazoline] |  | - (- = 0-19% control at 400 ppm) | - (- = 0-19% control at 400 ppm) | 0 | 0 | 0 | 0 | - (- = 0-19% control at 400 ppm) | 0 | 0 | - (- = 0-19% control at 400 ppm) | 0 | 0 | - (- = 0-19% control at 400 ppm) |  |  |
